Experimental data from patent publication US6861409B2, “Growth hormone secretagogues” (Zentaris AG, priority 2000, dated 2005).

Experiments:
Concentration GH = test: Time dependence of the oral activity in the dog (plasma GH); format: in vivo, dog (beagles); set-up: AUC (Area under the curve) of GH concentration: unit not given here; conditions: 1 mg/kg per os
Procedure: Furthermore the time dependence of the oral activity in the dog (1 mg/kg; per os) was estimated for example 1 (H-Aib-D-Trp-D-gTrp-CHO). Well-trained beagles of either sex, >10 year, 10-15 kg by weight, were used. Animals were fed normal dry food with water ad libitum and were on a 12 h-light/12 h-dark regimen with on at 7.00. The compound was administered orally to the dogs which had fasted since 16.00 of the preceding day. Blood samples were taken 20 min before administration, at administration and 15, 30, 60, 90, 120 and 180 min after administration.

plasma GH concentrations = test: Growth hormone releasing activity in the infant rat (plasma GH by RIA); format: in vivo, Sprague Dawley rats; conditions: Table 1 test series; male 10-day-old rats; 300 μg/kg subcutaneously; plasma 15 min later
Procedure: Male 10-day-old Sprague Dawley rats, about 25 g body weight were used.
One hour before the experiments, pups were separated from their respective dams and were divided randomly into groups of eight each.
Pups were acutely challenged subcutaneously with 100 μl of solvent (DMSO, final dilution 1:300 in physiological saline), hexarelin (Tyr-Ala-His-D-Mrp-Ala-Trp-D-Phe-Lys-NH2, used as a reference drug), or new compounds (300 μg/kg) and killed by decapitation 15 min later.
Trunk blood was collected and centrifuged immediately. Plasma samples were stored at −20° C. until assayed for the determination of plasma GH concentrations.
Growth hormone concentrations in plasma were measured by RIA using materials provided by the National Institute of Diabetes, Digestive and Kidney Diseases (NIDDK) of the National Institute of Health U.S.A.
Values were expressed in terms of the NIDDK-rat-GH-RP-2 standard (potency 21 U/mg) as ng/ml of plasma.
The minimum detectable value of rat GH was about 1.0 ng/ml, and intraassay variability was about 6%.

CC(C)(N)C(=O)N[C@H](Cc1c[nH]c2ccccc12)C(=O)N[C@H](Cc1c[nH]c2ccccc12)NC=O [Example 1, H-Aib-D-Trp-D-gTrp-CHO]
AUC (Area under the curve) of GH concentration (Concentration GH; MEAN VALUE of 6 dogs): 675.35 | Concentration GH (Concentration GH; MEAN VALUE of 6 dogs, t 0 min (at administration)): 1.79 ng/mL | Concentration GH (Concentration GH; MEAN VALUE of 6 dogs, t 15 min after administration): 5.32 ng/mL | Concentration GH (Concentration GH; MEAN VALUE of 6 dogs, t 30 min after administration): 5.5 ng/mL | Concentration GH (Concentration GH; MEAN VALUE of 6 dogs, t 60 min after administration): 3.52 ng/mL | Concentration GH (Concentration GH; MEAN VALUE of 6 dogs, t 90 min after administration): 3.59 ng/mL | Concentration GH (Concentration GH; MEAN VALUE of 6 dogs, t 120 min after administration): 3.42 ng/mL | Concentration GH (Concentration GH; MEAN VALUE of 6 dogs, t 180 min after administration): 3.04 ng/mL | Concentration GH (Concentration GH; MEAN VALUE of 6 dogs, t −20 min (before administration)): 2.07 ng/mL | AUC (Area under the curve) of GH concentration (Concentration GH; dog DAKOTA): 328.53 | Concentration GH (Concentration GH; dog DAKOTA, t 0 min (at administration)): 0.35 ng/mL | Concentration GH (Concentration GH; dog DAKOTA, t 15 min after administration): 2.11 ng/mL | Concentration GH (Concentration GH; dog DAKOTA, t 30 min after administration): 0.54 ng/mL | Concentration GH (Concentration GH; dog DAKOTA, t 60 min after administration): 0.17 ng/mL | Concentration GH (Concentration GH; dog DAKOTA, t 90 min after administration): 0.4 ng/mL | Concentration GH (Concentration GH; dog DAKOTA, t 120 min after administration): 3.58 ng/mL | Concentration GH (Concentration GH; dog DAKOTA, t 180 min after administration): 3.46 ng/mL | Concentration GH (Concentration GH; dog DAKOTA, t −20 min (before administration)): 0.48 ng/mL | AUC (Area under the curve) of GH concentration (Concentration GH; dog FORREST LEE): 888.91 | Concentration GH (Concentration GH; dog FORREST LEE, t 0 min (at administration)): 2.01 ng/mL | Concentration GH (Concentration GH; dog FORREST LEE, t 15 min after administration): 6.38 ng/mL | Concentration GH (Concentration GH; dog FORREST LEE, t 30 min after administration): 8.48 ng/mL | Concentration GH (Concentration GH; dog FORREST LEE, t 60 min after administration): 4.41 ng/mL | Concentration GH (Concentration GH; dog FORREST LEE, t 90 min after administration): 6.42 ng/mL | Concentration GH (Concentration GH; dog FORREST LEE, t 120 min after administration): 3.71 ng/mL | Concentration GH (Concentration GH; dog FORREST LEE, t 180 min after administration): 3.18 ng/mL | Concentration GH (Concentration GH; dog FORREST LEE, t −20 min (before administration)): 1.43 ng/mL | AUC (Area under the curve) of GH concentration (Concentration GH; dog JORMA): 658.38 | Concentration GH (Concentration GH; dog JORMA, t 0 min (at administration)): 2.75 ng/mL | Concentration GH (Concentration GH; dog JORMA, t 15 min after administration): 8.91 ng/mL | Concentration GH (Concentration GH; dog JORMA, t 30 min after administration): 6.85 ng/mL | Concentration GH (Concentration GH; dog JORMA, t 60 min after administration): 2.65 ng/mL | Concentration GH (Concentration GH; dog JORMA, t 90 min after administration): 2.47 ng/mL | Concentration GH (Concentration GH; dog JORMA, t 120 min after administration): 2.48 ng/mL | Concentration GH (Concentration GH; dog JORMA, t 180 min after administration): 2.82 ng/mL | Concentration GH (Concentration GH; dog JORMA, t −20 min (before administration)): 3.58 ng/mL | AUC (Area under the curve) of GH concentration (Concentration GH; dog MARKUS): 944.26 | Concentration GH (Concentration GH; dog MARKUS, t 0 min (at administration)): 2.55 ng/mL | Concentration GH (Concentration GH; dog MARKUS, t 15 min after administration): 6.11 ng/mL | Concentration GH (Concentration GH; dog MARKUS, t 30 min after administration): 6.9 ng/mL | Concentration GH (Concentration GH; dog MARKUS, t 60 min after administration): 6.51 ng/mL | Concentration GH (Concentration GH; dog MARKUS, t 90 min after administration): 5.18 ng/mL | Concentration GH (Concentration GH; dog MARKUS, t 120 min after administration): 4.54 ng/mL | Concentration GH (Concentration GH; dog MARKUS, t 180 min after administration): 4.12 ng/mL | Concentration GH (Concentration GH; dog MARKUS, t −20 min (before administration)): 2.45 ng/mL | AUC (Area under the curve) of GH concentration (Concentration GH; dog RAZ DEGAN): 510.64 | Concentration GH (Concentration GH; dog RAZ DEGAN, t 0 min (at administration)): 1.64 ng/mL | Concentration GH (Concentration GH; dog RAZ DEGAN, t 15 min after administration): 3.58 ng/mL | Concentration GH (Concentration GH; dog RAZ DEGAN, t 30 min after administration): 6.37 ng/mL | Concentration GH (Concentration GH; dog RAZ DEGAN, t 60 min after administration): 3.02 ng/mL | Concentration GH (Concentration GH; dog RAZ DEGAN, t 90 min after administration): 2.61 ng/mL | Concentration GH (Concentration GH; dog RAZ DEGAN, t 120 min after administration): 1.94 ng/mL | Concentration GH (Concentration GH; dog RAZ DEGAN, t 180 min after administration): 1.49 ng/mL | Concentration GH (Concentration GH; dog RAZ DEGAN, t −20 min (before administration)): 2.14 ng/mL | AUC (Area under the curve) of GH concentration (Concentration GH; dog TAYLOR): 721.34 | Concentration GH (Concentration GH; dog TAYLOR, t 0 min (at administration)): 1.41 ng/mL | Concentration GH (Concentration GH; dog TAYLOR, t 15 min after administration): 4.8 ng/mL | Concentration GH (Concentration GH; dog TAYLOR, t 30 min after administration): 3.89 ng/mL | Concentration GH (Concentration GH; dog TAYLOR, t 60 min after administration): 4.34 ng/mL | Concentration GH (Concentration GH; dog TAYLOR, t 90 min after administration): 4.43 ng/mL | Concentration GH (Concentration GH; dog TAYLOR, t 120 min after administration): 4.28 ng/mL | Concentration GH (Concentration GH; dog TAYLOR, t 180 min after administration): 3.18 ng/mL | Concentration GH (Concentration GH; dog TAYLOR, t −20 min (before administration)): 2.32 ng/mL | GH (plasma GH concentrations): 158.8 ± 39.4 ng/mL
